# According to patent publication US9198886B2, “Use of 2,5-dihydroxybenzene for the treatment of ocular diseases” (priority 2006, dated 2015):
# Tests used:
# [1] = system: intestinal inflammatory disease induced by dextran sulfate sodium; experiment: DSS-induced intestinal inflammatory disease in mice; format: in vivo, mice of strain C57BL/6J-664
# Method: (§1) The mice were subject to two 7-day cycles of exposure to dextran sulfate sodium (DSS) (from day 1 to 7 and from day 14 to 21) in the drinking water separated by 7 days in which regular water was provided (from 7 to 14). One group was treated with vehicle (0.9% NaCl), another with Solu-Medrol (10 mg/kg/day i.m.), and the other two groups with potassium 2,5-diacetoxybenzene sulfonate (DABS), one of them with 100 mg/kg/day i.p. and the other with 125 mg/kg/day, orally (p.o.). The body weight was normalized on day 0. Data are expressed as the mean+SD of the percentage of the basal weight (day 0) of 10 mice per group.
# as §1, with “(p.o.)” for “(p.o.). The body weight was normalized on day 0.”, “mean±SD” for “mean+SD”, “clinical score” for “percentage”, “disease continuously obtained from” for “basal weight (day 0) of”, “per each” for “per”
# The induction of the intestinal inflammatory disease described below is a representative model for the evaluation of therapeutic strategies to treat Crohn's disease and ulcerative colitis. 7-8 week old female mice of strain C57BL/6J-664 were used. The intestinal inflammatory disease (HD) was induced by feeding the mice with 3% dextran sulfate sodium (DSS; MW 40,000) dissolved in drinking water in 2 cycles. Each cycle consisted of 7 days with 3% DSS in the drinking water separated by 7 days with regular water. A daily clinical evaluation of the animals was performed in which the body weight, the consistency of the faeces and the presence of blood in the faeces were determined. Thus, the validated score of the clinical activity of the disease was evaluated with a 0 to 6 scale, considering the following parameters: consistency of the faeces, presence or absence of fecal blood and loss of weight.
# At the end of the first cycle of exposure to DSS, the mice were divided into the following treatment groups: a first group was administered intraperitoneal (i.p) injections of vehicle (0.9% NaCl). Another group received intramuscular injections of Solu-Medrol, a standard IID treatment, at a dose of 10 mg/kg/day. A third group was administered i.p. injections of potassium 2,5-diacetroxybenzene sulfonate (DABS, 100 mg/kg/day). The last group was treated orally with 125 mg/kg day of DABS.
# [2] = system: experimentally induced asthma; experiment: OVA-induced asthma in mice (methacholine Penh, BAL cell count); format: in vivo, Balb/c mice
# Method: Effect of potassium 2,5-diacetoxybenzene sulfonate (DABS) on bronchoconstriction in asthmatic mice treated with methacholine. All the mice were exposed to nebulized methacholine (MC; 5 and 20 mg/ml). Bronchoconstriction was determined as the enhanced pause. (Penh), calculated as described in the corresponding example (example 13). As control, the background and the exposure to nebulized saline (0.9% NaCl) are shown. *p<0.05 vs. saline.
# Effect of potassium 2,5-diacetoxybenzene sulfonate (DABS) on the inflammatory cell count in the bronchoalveolar lavage (BAL) in asthmatic mice. The data are expressed as mean±SEM of the total number of detected cells in the BAL of the right lung of each animal. *p<0.05, ***p<0.001 vs. group treated with vehicle.
# 6-9 week old Balb/c mice were used. The ovoalbumin (OVA)/aluminum complex was obtained after dissolving OVA (500 μg/mL) in PBS, and mixing it with an equal volume of 10% aluminum potassium sulfate at pH 6.5 for 1 hour. After centrifuging the pellet (750×g for 5 minutes) the OVA/aluminum pellet was resuspended in distilled water. On day 0, the mice were injected intraperitoneally injected with 100 μg of OVA/aluminum. Eight days later, the mice were anesthetized and exposed to 250 μg of OVA. Later, they were administered 125 μg of OVA on days 15, 18 and 21. […].
# The following treatments were administered to the animals: (i.p.) vehicle from day 2, potassium 2,5-diacetoxybencene sulfonate (DABS; 100 mg/kg/day, i.p.) from day 2, DABS (100 mg/kg/day, i.p.) from day 8 and Combivent (20 μg/200 μg in aerosol) on days 20, 21 and 22, the latter as a reference treatment.
# In order to evaluate the pulmonary function, the response to methacholine in conscious mice was determined, 24 hours after the last exposure to OVA. The mice were exposed to increasing methacholine concentrations (5 and 20 mg/mL) in the form of aerosol using an ultrasonic nebulizer during 2 minutes. The degree of bronchoconstriction was expressed as the enhanced pause (Penh) which correlates to the mouse air resistance, impedance and pressure within the pleura. The Penh was calculated using the formula Penh=[(Te/Rt−1)×(PEF/PIF)], where Te is expiratory time, Rt is relaxation time, PEF is peak expiratory flow and PIF is peak inspiratory flow×0.67 coefficient.
# After measuring airway hyperreactivity, the mice were sacrificed and the bronchoalveolar lavage (BAL) of the right lung was collected. The total number of cells in the BAL fluid was determined.
compound,measurement,setting,value
"CC(=O)Oc1ccc(OC(C)=O)c(S(=O)(=O)[O-])c1.[K+] [DABS, potassium 2,5-diacetoxybenzene sulfonate]",disease clinical score,[1]; 100 mg/kg/day i.p.,reduced
same,disease clinical score,[1]; 125 mg/kg/day orally,reduced
same,loss of body weight produced by two cycles of DSS,"[1]; DABS 100 mg/kg/day i.p. or 125 mg/kg/day p.o., Solu-Medrol 10 mg/kg/day i.m., vs vehicle",reduced
same,efficacy compared with standard treatment Solu-Medrol,"[1]; body weight and clinical score, Solu-Medrol 10 mg/kg/day i.m.",not lower (in some points it is higher)
same,methacholine induced bronchoconstriction (Penh),[2]; 100 mg/kg/day i.p. from day 2,completely prevented
same,methacholine induced bronchoconstriction (Penh),[2]; 100 mg/kg/day i.p. from day 8,completely prevented
same,presence of BAL cells in asthmatic mice,"[2]; 100 mg/kg/day i.p., vs vehicle",significantly reduced
same,BAL cell reduction compared with Combivent,"[2]; DABS 100 mg/kg/day i.p., Combivent aerosol days 20-22",even more than the treatment with Combivent
same,increase of the Penh after exposure to MC vs saline,"[2]; MC 5 and 20 mg/ml, Combivent 20 μg/200 μg aerosol days 20-22 or DABS 100 mg/kg/day i.p.",do not show a significant increase of the Penh
